From ChEMBL document CHEMBL4002627, “Quinolidene based monocarbonyl curcumin analogues as promising antimycobacterial agents: Synthesis and molecular docking study” (Bioorg Med Chem Lett, 2017)
In brackets after ≈: the same amount, converted by molar mass.

Key:
[1] = test system: Mycobacterium tuberculosis; experiment: Antimycobacterial activity against dormant state of Mycobacterium tuberculosis H37Ra by two fold dilution method; type: functional
[2] = test system: Mycobacterium tuberculosis; experiment: Antimycobacterial activity against dormant state of Mycobacterium tuberculosis H37Ra assessed as growth inhibition at 30 ug/ml after 12 days by XTT reduction menadione assay relative to control; type: functional; conditions: 288 h, read-out: GI
[3] = test system: Mycobacterium tuberculosis; experiment: Antimycobacterial activity against dormant state of Mycobacterium tuberculosis H37Ra assessed as growth inhibition at 10 ug/ml after 12 days by XTT reduction menadione assay relative to control; type: functional; conditions: 288 h, read-out: GI
[4] = test system: Mycobacterium tuberculosis; experiment: Antimycobacterial activity against dormant state of Mycobacterium tuberculosis H37Ra assessed as growth inhibition at 3 ug/ml after 12 days by XTT reduction menadione assay relative to control; type: functional; conditions: 288 h, read-out: GI
[5] = Cytotoxicity against human MCF7 cells assessed as growth inhibition at 30 ug/ml after 48 hrs by MTT assay relative to control; type: cell-based; conditions: read-out: GI
[6] = Cytotoxicity against human MCF7 cells assessed as growth inhibition at 10 ug/ml after 48 hrs by MTT assay relative to control; type: cell-based; conditions: read-out: GI
[7] = Cytotoxicity against human MCF7 cells assessed as growth inhibition at 3 ug/ml after 48 hrs by MTT assay relative to control; type: cell-based; conditions: read-out: GI
[8] = Cytotoxicity against human A549 cells assessed as growth inhibition at 30 ug/ml after 48 hrs by MTT assay relative to control; type: cell-based; conditions: read-out: GI
[9] = Cytotoxicity against human A549 cells assessed as growth inhibition at 10 ug/ml after 48 hrs by MTT assay relative to control; type: cell-based; conditions: read-out: GI
[10] = Cytotoxicity against human A549 cells assessed as growth inhibition at 3 ug/ml after 48 hrs by MTT assay relative to control; type: cell-based; conditions: read-out: GI
[11] = Cytotoxicity against human HCT116 cells assessed as growth inhibition at 30 ug/ml after 48 hrs by MTT assay relative to control; type: cell-based, HCT-116; conditions: read-out: GI
[12] = Cytotoxicity against human HCT116 cells assessed as growth inhibition at 10 ug/ml after 48 hrs by MTT assay relative to control; type: cell-based, HCT-116; conditions: read-out: GI
[13] = Cytotoxicity against human HCT116 cells assessed as growth inhibition at 3 ug/ml after 48 hrs by MTT assay relative to control; type: cell-based, HCT-116; conditions: read-out: GI
[14] = (§1) Cytotoxicity against human MCF7 cells assessed as growth inhibition after 48 hrs by MTT assay; type: cell-based; conditions: MCF7 cells
MCF7 = experiment: as §1; type: cell-based; conditions: mcf7, 48 h
[15] = (§2) Cytotoxicity against human A549 cells assessed as growth inhibition after 48 hrs by MTT assay; type: cell-based; conditions: A549 cells
A549 = experiment: as §2; type: cell-based; conditions: a549, 48 h
[16] = (§3) Cytotoxicity against human HCT116 cells assessed as growth inhibition after 48 hrs by MTT assay; type: cell-based, HCT-116; conditions: HCT116 cells
HCT-116 = experiment: as §3; type: cell-based; conditions: hct-116, 48 h
Escherichia coli = experiment: Antibacterial activity against Escherichia coli ATCC […] after 8 hrs; type: functional
Pseudomonas fluorescens = experiment: Antibacterial activity against Pseudomonas fluorescens ATCC 13525 after 8 hrs; type: functional; conditions: ATCC 13525, 8 h
Staphylococcus aureus = experiment: Antibacterial activity against Staphylococcus aureus ATCC 29213 after 12 hrs; type: functional; conditions: ATCC 29213, 12 h
Bacillus subtilis = experiment: Antibacterial activity against Bacillus subtilis ATCC 23857 after 12 hrs; type: functional; conditions: ATCC 23857, 12 h

Compound | MIC50 [1] [µg/mL] | MIC90 [1] [µg/mL] | inhibition of growth at 30 µg/mL [2] [%] | inhibition of growth at 10 µg/mL [3] [%] | inhibition of growth at 3 µg/mL [4] [%] | inhibition at 48 h, 30 ug/ml [5] [%] | inhibition at 48 h, 10 ug/ml [6] [%] | inhibition at 48 h, 3 ug/ml [7] [%] | inhibition at 48 h, 30 ug/ml [8] [%] | inhibition at 48 h, 10 ug/ml [9] [%] | inhibition at 48 h, 3 ug/ml [10] [%] | inhibition at 48 h, 30 ug/ml [11] [%] | inhibition at 48 h, 10 ug/ml [12] [%] | inhibition at 48 h, 3 ug/ml [13] [%] | GI90 (MCF7) [µg/mL] | GI90 (A549) [µg/mL] | GI50 at 48 h [16] [µg/mL] | GI90 (HCT-116) [µg/mL] | MIC50 (Staphylococcus aureus) [µg/mL] | MIC90 (Staphylococcus aureus) [µg/mL] | further results
O=C1/C(=C/c2cc3ccccc3nc2Cl)CNC/C1=C\c1cc2ccccc2nc1Cl | > 30 | > 30 | 33.3 | 43.6 | 9.6 | 26.3 | 23.2 | 22.2 | -14.1 | 0 | 0 | 0 | 0 | 0 |  |  |  |  |  |  | 
CN1C/C(=C\c2cc3cc(Cl)ccc3nc2Cl)C(=O)/C(=C/c2cc3cc(Cl)ccc3nc2Cl)C1 | > 30 | > 30 | 43.1 | 7.2 | 35.4 | 58.7 | 42.8 | 22.8 | 48.9 | 48.9 | 0 | 11.7 | 11.9 | 2 | > 100 | > 100 | > 100 | > 100 | > 30 | > 30 | GI50 at 48 h [14]: 29.8 µg/mL (≈ 56.3 µM); GI50 at 48 h [15]: > 100 µg/mL; MIC50 (Escherichia coli): > 30 µg/mL; MIC90 (Escherichia coli): > 30 µg/mL; MIC50 (Pseudomonas fluorescens): > 30 µg/mL; MIC90 (Pseudomonas fluorescens): > 30 µg/mL; MIC50 (Bacillus subtilis): > 30 µg/mL; MIC90 (Bacillus subtilis): > 30 µg/mL
O=C1/C(=C/c2cc3cc(Cl)ccc3nc2Cl)CNC/C1=C\c1cc2cc(Cl)ccc2nc1Cl | 27.8 (≈ 54 µM) | > 30 | 53.8 | 24.5 | 23.7 | 50 | 22.8 | 14.3 | -12 | 0 | 2.3 | -14.5 | -22.2 | -18.3 |  |  |  |  |  |  | 
Cc1cccc2cc(/C=C3\CN(C)C/C(=C\c4cc5cccc(C)c5nc4Cl)C3=O)c(Cl)nc12 | 27 (≈ 55.3 µM) | > 30 | 51.5 | 15.3 | 22.4 | 0 | 0 | 0 | -20.4 | 0 | -11 | 1.6 | 4.1 | -4.3 |  |  |  |  |  |  | 
Cc1ccc2nc(Cl)c(/C=C3\CN(C)C/C(=C\c4cc5cc(C)ccc5nc4Cl)C3=O)cc2c1 | > 30 | > 30 | 36.8 | 15.6 | -18.6 | 44.8 | 18.7 | 1.7 | 0 | 0 | 0 | 16.5 | 10.5 | 12.5 |  |  |  |  |  |  | 
Cc1cccc2cc(/C=C3\CNC/C(=C\c4cc5cccc(C)c5nc4Cl)C3=O)c(Cl)nc12 | > 30 | > 30 | 12.6 | 32.7 | 4.6 | 0 | 0 | 0 | -13.9 | 0 | 0 | 13.7 | 10.4 | 3.2 |  |  |  |  |  |  | 
CN1C/C(=C\c2cc3cc(F)ccc3nc2Cl)C(=O)/C(=C/c2cc3cc(F)ccc3nc2Cl)C1 | > 30 | > 30 | 34.1 | 14.7 | 39.7 | 32.3 | -0.6 | 7.8 | 0 | 0 | 0 | 12.7 | 10.3 | -0.4 |  |  |  |  |  |  | 
COc1ccc2nc(Cl)c(/C=C3\CNC/C(=C\c4cc5cc(OC)ccc5nc4Cl)C3=O)cc2c1 | 12.1 (≈ 23.9 µM) | 27.9 (≈ 55.1 µM) | 95.4 | 44.7 | 31.2 | 27.4 | 32.5 | 4.7 | 0 | 0 | 0 | 0 | 0 | 0 | > 100 | > 100 | 9.83 (≈ 19.4 µM) | > 100 | > 30 | > 30 | GI50 at 48 h [14]: 8.93 µg/mL (≈ 17.6 µM); GI50 at 48 h [15]: > 100 µg/mL; MIC50 (Escherichia coli): > 30 µg/mL; MIC90 (Escherichia coli): > 30 µg/mL; MIC50 (Pseudomonas fluorescens): > 30 µg/mL; MIC90 (Pseudomonas fluorescens): > 30 µg/mL; MIC50 (Bacillus subtilis): > 30 µg/mL; MIC90 (Bacillus subtilis): > 30 µg/mL
Cc1ccc2nc(Cl)c(/C=C3\CNC/C(=C\c4cc5cc(C)ccc5nc4Cl)C3=O)cc2c1 | > 30 | > 30 | 34.4 | 28.5 | 9.9 | 14.2 | 17.7 | 0.9 | 0 | 0 | -18.7 | 21.8 | 16.3 | 5.5 |  |  |  |  |  |  | 
Cc1ccc2cc(/C=C3\CN(C)C/C(=C\c4cc5ccc(C)cc5nc4Cl)C3=O)c(Cl)nc2c1 | 7.7 (≈ 15.8 µM) | 20 (≈ 40.9 µM) | 98.6 | 81.7 | -17.1 | 63.7 | 52 | 46.1 | 45.7 | 34.6 | 30.2 | 27.4 | 13.7 | 12.9 | > 100 | > 100 | > 100 | > 100 | > 30 | > 30 | GI50 at 48 h [14]: 8.23 µg/mL (≈ 16.9 µM); GI50 at 48 h [15]: > 100 µg/mL; MIC50 (Escherichia coli): > 30 µg/mL; MIC90 (Escherichia coli): > 30 µg/mL; MIC50 (Pseudomonas fluorescens): > 30 µg/mL; MIC90 (Pseudomonas fluorescens): > 30 µg/mL; MIC50 (Bacillus subtilis): > 30 µg/mL; MIC90 (Bacillus subtilis): > 30 µg/mL
COc1ccc2nc(Cl)c(/C=C3\CN(C)C/C(=C\c4cc5cc(OC)ccc5nc4Cl)C3=O)cc2c1 | > 30 | > 30 | -0.8 | -5.8 | 52 | 39 | -7.4 | -7.1 | 0 | 0 | 0 | 10.2 | 12.2 | -2.1 |  |  |  |  |  |  | 
NC[C@H]1O[C@H](O[C@H]2[C@H](O)[C@@H](O[C@H]3O[C@H](CO)[C@@H](O)[C@H](N)[C@H]3O)[C@H](N)C[C@@H]2N)[C@H](O)[C@@H](O)[C@@H]1O [KANAMYCIN] |  |  |  |  |  |  |  |  |  |  |  |  |  |  |  |  |  |  | > 30 | 16 (≈ 33 µM) | 
CC(=O)O[C@H]1C(=O)[C@@]2(C)[C@H]([C@H](OC(=O)c3ccccc3)[C@]3(O)C[C@H](OC(=O)[C@H](O)[C@@H](NC(=O)c4ccccc4)c4ccccc4)C(C)=C1C3(C)C)[C@]1(OC(C)=O)CO[C@@H]1C[C@@H]2O [PACLITAXEL] |  |  |  |  |  |  |  |  |  |  |  |  |  |  | 0.075 (≈ 0.0878 µM) | 0.0706 (≈ 0.0827 µM) | 0.128 (≈ 0.15 µM) | 5.715 (≈ 6.69 µM) |  |  | 
